What was measured:
[1] = ABTS radical scavenging assay; assay type: biochemical; conditions: supplement tables; for ABTS, mean±SD: n = 3
Procedure: The ABTS radical scavenging activity of the sample was measured using a method adapted from Mirzaei et al.. The ABTS radical was generated by mixing 7 mM ABTS with 2.45 mM potassium persulfate in a 1:1 ratio and incubating the mixture in the dark at room temperature for 12 to 16 h. The resulting solution was then diluted to achieve an absorbance of 0.74 ± 0.03 at 734 nm, using deionized water for adjustments. Next, 10 μL of the sample was added to 190 μL of the ABTS solution. The mixture was incubated in the dark for 7 min, after which the absorbance was measured at 734 nm. The ABTS radical scavenging activity (%) was calculated using the following equation (2):
ABTSradicalscavengingactivity%=Acontrol–Asample/Acontrol×100 (2)
In this equation, Acontrol refers to the absorbance of the control solution (which contains all reagents except the test samples), while Asample refers to the absorbance of the mixture containing the sample and the ABTS solution. To determine the Trolox equivalent antioxidant capacity (TEAC), a Trolox standard curve was used, and the results were expressed as millimoles of Trolox equivalents per milligram of protein (mM TE/mg protein).

RAW 264.7 [2] = assay: Cytotoxicity assessment (MTT); assay type: cell-based, Murine; conditions: peptide 10 µg/mL, 72 h; for Cell viability, mean±SD: relative to untreated cells
Procedure: (§1) Murine macrophage cells (RAW 264.7; ATCC TIB-71™) were cultured in Dulbecco’s Modified Eagle’s Medium (DMEM) that was supplemented with 10% heat-inactivated fetal bovine serum (FBS) and 1% antibiotic solution. Colorectal adenocarcinoma cells (CaCo-2; ATCC HTB 37™) were cultured in Eagle’s Minimum Essential Medium (EMEM), also supplemented with 10% heat-inactivated FBS and 1% antibiotic solution. Both cell types were maintained in a humidified incubator with 5% CO2. The cell culture medium was refreshed every three days.
Cytotoxicity assessment was performed following the method described by Yang et al., with slight modifications. RAW 264.7 was seeded with 1 x 10^5 cells in a 96-well plate with an appropriate cell culture medium. After allowing the cells to attach, the medium was replaced with a fresh cell culture medium containing the peptide samples at a concentration of 10 µg/mL. The treated cells were incubated for an additional 72 h. At the designated time, fresh medium was added, which included 3-(4,5-dimethylthiazol-2-yl)-2,5-diphenyltetrazolium bromide (MTT) at a concentration of 0.5 mg/mL. After 3 h, formazan crystals were observed. The medium was then removed, and the crystals were dissolved in 100% dimethyl sulfoxide (DMSO). A microplate reader (Synergy HTX; Biotek, Multi-Mode Reader, Winooski, VT, USA) was utilized to measure the absorbance at 570 nm (measurement wavelength) and 630 nm (reference wavelength). The percentage of cell viability was calculated relative to untreated cells using the following equation (5):
Cellviability%=ODtreatment–ODblank/ODuntreated–ODblank×100 (5)
Where ODtreatment is the absorbance of the treated sample, ODuntreated is the absorbance of the untreated sample, and ODblank is the absorbance from wells without treated and untreated samples.

[3] = Ferric reducing antioxidant power (FRAP) assay; assay type: biochemical
Procedure: The FRAP assay was conducted following the method outlined by Rumpf et al.. The FRAP solution was prepared by mixing 300 mM acetate buffer (pH 3.6), 10 mM TPTZ (2,4,6-Tris(2-pyridyl)-s-triazine) in 40 mM hydrochloric acid, and 20 mM FeCl3 in a ratio of 10:1:1. In a 96-well plate, 10 μL of the sample was combined with 190 μL of the FRAP solution and incubated in the dark for 15 min. The absorbance of the mixture was then measured at 593 nm. FeSO4 was used to create the standard curve, and the results were expressed as millimoles of FeSO4 equivalent per milligram of protein (mM FeSO4/mg protein).

[4] = DPPH radical scavenging assay; assay type: biochemical; conditions: for DPPH, mean±SD / DPPH: supplement tables; for DPPH, mean±SD / DPPH radical scavenging activity (TEAC): n = 3, mean ± SD; for DPPH radical scavenging activity (TEAC): 10 µL sample + 190 µL 0.1 mM DPPH in 70% ethanol, 30 min dark, room temperature, 517 nm, Trolox standard curve
Procedure: The DPPH radical scavenging activity of the sample was assessed following a modified protocol based on a previous study. In each well of a 96-well plate, 10 μL of the sample was added, followed by 190 μL of 0.1 mM DPPH solution in 70% ethanol. The mixture was then incubated at room temperature in the dark for 30 min. After the incubation period, the absorbance of the mixture was measured at 517 nm. The DPPH radical scavenging activity was calculated using the following equation (1):
DPPHradicalscavengingactivity%=Acontrol–Asample/Acontrol×100 (1)
In this equation, Acontrol represents the absorbance of a control solution containing all reagents except for the test samples, while Asample is the absorbance of the mixture (the sample combined with 0.1 mM DPPH). To determine the Trolox equivalent antioxidant capacity (TEAC), a Trolox standard curve was utilized. The results were expressed as millimoles of Trolox equivalents per milligram of protein (mM TE/mg protein).

RAW 264.7 [5] = assay: Anti-inflammation assay: released NO in LPS-stimulated RAW 264.7 (Griess); assay type: cell-based, Murine; conditions: then 1 µg/mL LPS 24 h; for Released NO: peptide 10 µg/mL 1 h; for Released NO, mean±SD: peptide 10 µg/mL pre-treatment 1 h, Griess reagent, n = 3
Procedure: as §1
The anti-inflammation assay was conducted following the method described by Barzkar et al. with slight modifications. RAW 264.7 (1 x 10^5 cells) was seeded into a 96-well plate to allow for cell attachment. After 24 h, the cells were pre-treated with fresh medium containing peptide samples at a concentration of 10 µg/mL for 1 h. Subsequently, the treated cells were stimulated with 1 µg/mL lipopolysaccharide (LPS) for an additional 24 h. Unstimulated cells were included as a negative control. At the end of the treatment period, the conditioned medium was collected for the determination of released nitric oxide (NO). Griess’s reagent (Promega) was utilized to measure the NO concentration, following the manufacturer’s instructions. A NO calibration curve was generated to quantify the released NO in the conditioned medium.

[6] = 10 µL sample + 190 µL FRAP solution, 15 min dark, 593 nm, FeSO4 standard curve, mean ± SD, n = 3, SD

Sequence: LGAEGRSP [P13, synthesized peptide identified from jellyfish fraction PUR20C]
- ABTS, mean±SD [1]: 6.51±0.87^H TE/mg protein
- ABTS ([1]; replicate 1): 5.91 TE/mg protein
- ABTS ([1]; replicate 2): 6.11 TE/mg protein
- ABTS ([1]; replicate 3): 7.51 TE/mg protein
- Cell viability, mean±SD (RAW 264.7 [2]; n = 3, SD): 82.77±1.53%
- Cell viability (RAW 264.7 [2]; replicate 1): 81.72%
- Cell viability (RAW 264.7 [2]; replicate 2): 82.07%
- Cell viability (RAW 264.7 [2]; replicate 3): 84.53%
- FRAP [3, 6]: 4.82±0.73^H mM FeSO4/mg protein
- FRAP ([3]; supplement tables, replicate 1): 4.89 mM FeSO4/mg protein
- FRAP ([3]; supplement tables, replicate 2): 5.52 mM FeSO4/mg protein
- FRAP ([3]; supplement tables, replicate 3): 4.05 mM FeSO4/mg protein
- DPPH, mean±SD [4]: 5.85±0.66^D TE/mg protein
- DPPH ([4]; replicate 1): 5.23 TE/mg protein
- DPPH ([4]; replicate 2): 5.76 TE/mg protein
- DPPH ([4]; replicate 3): 6.56 TE/mg protein
- Released NO (RAW 264.7 [5]; replicate 1): 35.17 µM
- Released NO (RAW 264.7 [5]; replicate 2): 35.51 µM
- Released NO (RAW 264.7 [5]; replicate 3): 37.58 µM
- Released NO, mean±SD (RAW 264.7 [5]; SD): 36.09 µM

Sequence: LNIPKPKLNLL [P11, synthesized peptide identified from jellyfish fraction PUR20C]
- ABTS, mean±SD [1]: 3.91 TE/mg protein
- ABTS ([1]; replicate 1): 4.11 TE/mg protein
- ABTS ([1]; replicate 2): 3.71 TE/mg protein
- ABTS ([1]; replicate 3): 3.91 TE/mg protein
- Cell viability, mean±SD (RAW 264.7 [2]; n = 3, SD): 84.71%
- Cell viability (RAW 264.7 [2]; replicate 1): 84.53%
- Cell viability (RAW 264.7 [2]; replicate 2): 85.41%
- Cell viability (RAW 264.7 [2]; replicate 3): 84.18%
- FRAP [3, 6]: 6.36±0.63^G mM FeSO4/mg protein
- FRAP ([3]; supplement tables, replicate 1): 6.36 mM FeSO4/mg protein
- FRAP ([3]; supplement tables, replicate 2): 7.00 mM FeSO4/mg protein
- FRAP ([3]; supplement tables, replicate 3): 5.73 mM FeSO4/mg protein
- DPPH, mean±SD [4]: 3.81±0.40^E TE/mg protein
- DPPH ([4]; replicate 1): 3.90 TE/mg protein
- DPPH ([4]; replicate 2): 3.37 TE/mg protein
- DPPH ([4]; replicate 3): 4.17 TE/mg protein
- Released NO (RAW 264.7 [5]; replicate 1): 36.55 µM
- Released NO (RAW 264.7 [5]; replicate 2): 35.86 µM
- Released NO (RAW 264.7 [5]; replicate 3): 37.58 µM
- Released NO, mean±SD (RAW 264.7 [5]; SD): 36.66 ± 0.86 µM

Sequence: MVVACVLPEA [P16, synthesized peptide identified from jellyfish fraction PUR20C]
- ABTS, mean±SD [1]: 121.31±0.87^D TE/mg protein
- ABTS ([1]; replicate 1): 121.71 TE/mg protein
- ABTS ([1]; replicate 2): 120.30 TE/mg protein
- ABTS ([1]; replicate 3): 121.91 TE/mg protein
- Cell viability, mean±SD (RAW 264.7 [2]; n = 3): without cytotoxic effects
- Cell viability (RAW 264.7 [2]; replicate 1): 81.01%
- Cell viability (RAW 264.7 [2]; replicate 2): 81.37%
- Cell viability (RAW 264.7 [2]; replicate 3): 81.19%
- FRAP [3, 6]: 6.92 mM FeSO4/mg protein
- FRAP ([3]; supplement tables, replicate 1): 8.05 mM FeSO4/mg protein
- FRAP ([3]; supplement tables, replicate 2): 7.63 mM FeSO4/mg protein
- FRAP ([3]; supplement tables, replicate 3): 5.10 mM FeSO4/mg protein
- DPPH radical scavenging activity (TEAC) [4]: strongest DPPH radical scavenging activity
- DPPH radical scavenging activity (TEAC) ([4]; listed as MVVACVLPEA): 56.07 mM TE/mg protein
- DPPH, mean±SD [4]: 56.07±0.30^A TE/mg protein
- DPPH ([4]; replicate 1): 55.89 TE/mg protein
- DPPH ([4]; replicate 2): 55.89 TE/mg protein
- DPPH ([4]; replicate 3): 56.42 TE/mg protein
- Released NO (RAW 264.7 [5]; replicate 1): 35.17 µM
- Released NO (RAW 264.7 [5]; replicate 2): 33.44 µM
- Released NO (RAW 264.7 [5]; replicate 3): 35.17 µM
- Released NO, mean±SD (RAW 264.7 [5]): 34.59 µM
- Released NO, mean±SD (RAW 264.7 [5]; SD): 34.59 ± 0.99 µM

Sequence: NQKAMQELNE [P1, synthesized peptide identified from jellyfish fraction PUR20C]
- ABTS, mean±SD [1]: 4.44 TE/mg protein
- ABTS ([1]; replicate 1): 4.91 TE/mg protein
- ABTS ([1]; replicate 2): 4.11 TE/mg protein
- ABTS ([1]; replicate 3): 4.31 TE/mg protein
- Cell viability, mean±SD (RAW 264.7 [2]; n = 3, SD): 85.94%
- Cell viability (RAW 264.7 [2]; replicate 1): 88.04%
- Cell viability (RAW 264.7 [2]; replicate 2): 85.76%
- Cell viability (RAW 264.7 [2]; replicate 3): 84.00%
- FRAP [3, 6]: 8.61±0.12^E mM FeSO4/mg protein
- FRAP ([3]; supplement tables, replicate 1): 8.47 mM FeSO4/mg protein
- FRAP ([3]; supplement tables, replicate 2): 8.68 mM FeSO4/mg protein
- FRAP ([3]; supplement tables, replicate 3): 8.68 mM FeSO4/mg protein
- DPPH, mean±SD [4]: 1.16±0.15^H TE/mg protein
- DPPH ([4]; replicate 1): 0.99 TE/mg protein
- DPPH ([4]; replicate 2): 1.25 TE/mg protein
- DPPH ([4]; replicate 3): 1.25 TE/mg protein
- Released NO (RAW 264.7 [5]; replicate 1): 37.58 µM
- Released NO (RAW 264.7 [5]; replicate 2): 38.27 µM
- Released NO (RAW 264.7 [5]; replicate 3): 37.93 µM
- Released NO, mean±SD (RAW 264.7 [5]; SD): 37.93 µM

Sequence: PFTMYFLL [P14, synthesized peptide identified from jellyfish fraction PUR20C]
- ABTS, mean±SD [1]: 119.57±1.33^E TE/mg protein
- ABTS ([1]; replicate 1): 118.70 TE/mg protein
- ABTS ([1]; replicate 2): 118.90 TE/mg protein
- ABTS ([1]; replicate 3): 121.11 TE/mg protein
- Cell viability, mean±SD (RAW 264.7 [2]; n = 3, SD): 90.09±2.78^B %
- Cell viability (RAW 264.7 [2]; replicate 1): 87.69%
- Cell viability (RAW 264.7 [2]; replicate 2): 89.45%
- Cell viability (RAW 264.7 [2]; replicate 3): 93.14%
- FRAP [3, 6]: 9.24±1.05 mM FeSO4/mg protein
- FRAP ([3]; supplement tables, replicate 1): 10.36 mM FeSO4/mg protein
- FRAP ([3]; supplement tables, replicate 2): 9.10 mM FeSO4/mg protein
- FRAP ([3]; supplement tables, replicate 3): 8.26 mM FeSO4/mg protein
- DPPH, mean±SD [4]: 6.29±0.53^D TE/mg protein
- DPPH ([4]; replicate 1): 6.29 TE/mg protein
- DPPH ([4]; replicate 2): 5.76 TE/mg protein
- DPPH ([4]; replicate 3): 6.82 TE/mg protein
- Released NO (RAW 264.7 [5]; replicate 1): 32.06 µM
- Released NO (RAW 264.7 [5]; replicate 2): 31.03 µM
- Released NO (RAW 264.7 [5]; replicate 3): 34.48 µM
- Released NO, mean±SD (RAW 264.7 [5]; SD): 32.52±1.76^F µM

Reference: PMC11813147, “Bioactivity assessment of peptides derived from salted jellyfish (Rhopilema hispidum) byproducts” (PLOS ONE, 2025)
